Results reported in patent publication US8415307B1, “Antibiotic compositions for the treatment of gram negative infections” (priority 2010, dated 2013).

Columns and labels:
A. baum = assay: MIC50 and MIC90, panel of Gram negative bacterial strains (CLSI broth microdilution); type: cell-based, A. baumanni; set-up: key to A. baum MIC50 / A. baum MIC90: A: a measured MIC value equal to that of polymyxin B; a measured MIC value less than the corresponding MIC value measured for polymyxin B; a measured MIC value greater than the corresponding MIC value measured for polymyxin B
Method: (§1) The potency and spectrum of Compound 5 was studied using a panel of Gram negative bacterial strains.
(§2) MIC testing can be performed according to Clinical and Laboratory Standards Institute (CLSI) M7-A7 (2006) broth microdilution methods. Unless otherwise indicated, MIC values are provided in units of micrograms per milliliter.
(§3) One day prior to testing, individual colonies were isolated by streaking onto rich, non-selective Tryptic Soy agar with 5% lysed sheeps blood (TSAB) with incubation at 35-37° C. for 18-24 hours.
(§4) Cultures were prepared by touching 3-5 colonies into 3 mL of cation-adjusted Mueller Hinton Broth (caMHB) in a 14-mL tube (caMHB was prepared and sterilized according to manufacturer's specifications).
(§5) OD600 of growing cultures was measured and adjusted to approximately 10^5 colony forming units per mL (CFU/mL) in caMHB for MIC inoculation (approximately OD600 0.001).
(§6) Diluted cultures were used to inoculate 50 μL per well in broth microdilution assays (final volume 100 μl per well; compounds were prepared in two-fold dilutions).
(§7) Plates were incubated 16-20 hours at 37° C., with shaking at 200 rpm.
(§8) OD600 was determined for all wells. Growth was defined as OD600>0.1. MICs were defined as the lowest concentration producing no visible turbidity (OD600<0.1).

[1] = Acute toxicity testing in rats; type: in vivo, Sprague-Dawley rat; settings: 1 mg/kg i.v.
Method: One female Sprague-Dawley rat was administered a 1 mg/kg dose of the test Compound 5. Clinical observations were taken immediately following the administration of compound and at 0.5, 1, 2 and 4 hours post-dose.

K. pneu = assay: MIC50 and MIC90, panel of Gram negative bacterial strains (CLSI broth microdilution); type: cell-based, K. pneumonia; set-up: key to K. pneu MIC50 / K. pneu MIC90: A: a measured MIC value equal to that of polymyxin B; a measured MIC value less than the corresponding MIC value measured for polymyxin B; a measured MIC value greater than the corresponding MIC value measured for polymyxin B
Method: as §1, §2, §3, §4, §5, §6, §7, §8

P. aeruginosa #44 = assay: MICs for P. aeruginosa #44 in the presence of surfactant; type: cell-based; set-up: key: A: a MIC value measurement that is the same as that observed for polymyxin B; a MIC value measured that is lower than the comparable value observed for polymxin B; a MIC value measured that is higher than the comparable value observed for polymyxin B; settings: class relative to polymyxin B
Method: (§9) Antibacterial potency can be assessed by broth microdilution according to CLSI guidelines, plates can be incubated at 37° C., and aeration (rotation at 200 rpm) can be employed. In some assays, surfactant (Survanta, Abbott Laboratories) can be added to give a final concentration of 1, 10 and 40% in caMHB. Native polymyxin A, polymyxin B and the comparator compound of Formula II (polymyxin B decapeptide with an o-chlorophenyl urea tail) were included for comparison.

P. aeruginosa 44 [2] = assay: Neutropenic mouse lung infection model; type: in vivo
Method: Compound of Formula (Ia) was tested in a murine thigh model. For the thigh model, female CD-1 mice were rendered neutropenic by IP injection on days −4 and −1 with 150 and 100 mg/kg cyclophosphamide, respectively. On day 0 mice were infected with 1×10^7 colony-forming units (cfu) of A. baumannii 1570 in one thigh muscle, and then administered compound SC in a dose ranging from 2 to 12 mg/kg at 1 and 6 hours post-infection.
The mouse lung model was run in the same manner as the thigh infection model, except that mice were infected IN with 1×10^7 cfu of P. aeruginosa 44 on day 0. Doses administered in the lung study ranged from 8 to 20 mg/kg. The ED−3log10 was based on cfu determination from the lung tissue 24 hours post-infection.

E. coli [3] = assay: MIC50 and MIC90, panel of Gram negative bacterial strains (CLSI broth microdilution); type: cell-based; set-up: key to E. coli MIC50 / E. coli MIC90: A: a measured MIC value equal to that of polymyxin B; a measured MIC value less than the corresponding MIC value measured for polymyxin B; a measured MIC value greater than the corresponding MIC value measured for polymyxin B
Method: as §1, §2, §3, §4, §5, §6, §7, §8

P. aeru = assay: as above; type: cell-based, P. Aeruginosa; set-up: key to P. aeru MIC50 / P. aeru MIC90: A: a measured MIC value equal to that of polymyxin B; a measured MIC value less than the corresponding MIC value measured for polymyxin B; a measured MIC value greater than the corresponding MIC value measured for polymyxin B
Method: as §1, §2, §3, §4, §5, §6, §7, §8

[4] = system: K. pneumoniae 1800 (PMX-resistant); assay: MIC against the primary screening panel (broth microdilution); type: cell-based; set-up: key: A: a MIC value measurement that is the same as that observed for polymyxin B; a MIC value measured that is lower than the comparable value observed for polymxin B; a MIC value measured that is higher than the comparable value observed for polymyxin B; settings: class relative to polymyxin B
Method: as §9

P. aeruginosa 44 [5] = assay: as above; type: cell-based; set-up: key: A: a MIC value measurement that is the same as that observed for polymyxin B; a MIC value measured that is lower than the comparable value observed for polymxin B; a MIC value measured that is higher than the comparable value observed for polymyxin B; settings: class relative to polymyxin B
Method: as §9

A. baumannii 1570 = assay: as above; type: cell-based; set-up: key: A: a MIC value measurement that is the same as that observed for polymyxin B; a MIC value measured that is lower than the comparable value observed for polymxin B; a MIC value measured that is higher than the comparable value observed for polymyxin B; settings: class relative to polymyxin B
Method: as §9

K. pneumoniae 933 = assay: as above; type: cell-based; set-up: key: A: a MIC value measurement that is the same as that observed for polymyxin B; a MIC value measured that is lower than the comparable value observed for polymxin B; a MIC value measured that is higher than the comparable value observed for polymyxin B; settings: class relative to polymyxin B
Method: as §9

E. coli [6] = assay: MIC50-90 against small panels (n = 35); type: cell-based; set-up: key: A: a MIC value measurement that is the same as that observed for polymyxin B; a MIC value measured that is lower than the comparable value observed for polymxin B; a MIC value measured that is higher than the comparable value observed for polymyxin B; settings: small panel n = 35; class relative to polymyxin B
Description: (§10) MIC's refer to the concentration of each antimicrobial agent required to inhibit the growth of a bacterial isolate, as well as the corresponding concentrations required to inhibit 50% and 90% of each group of microorganisms tested [MIC50 and MIC90, respectively, consistent with definitions in the “Instructions to Authors” for Antimicrobial Agents and Chemotherapy (Antimicrobial Agents and Chemotherapy, January 2010, p. 1-23, Vol. 54, No. 1, incorporated herein by reference)]. When only up to nine isolates of a species are tested, MIC's are reported as the MIC range of each antimicrobial agent tested. MIC values provided as numerical ranges for testing of a single bacterial strain indicate the range of MIC values obtained in repeated tests of the indicated bacteria strain.
as §9

A. baumannii = assay: MIC50-90 against small panels (n = 35); type: cell-based; set-up: key: A: a MIC value measurement that is the same as that observed for polymyxin B; a MIC value measured that is lower than the comparable value observed for polymxin B; a MIC value measured that is higher than the comparable value observed for polymyxin B; settings: small panel n = 35; class relative to polymyxin B
Description: as §10, §9

K. pneumoniae = assay: MIC50-90 against small panels (n = 35); type: cell-based; set-up: key: A: a MIC value measurement that is the same as that observed for polymyxin B; a MIC value measured that is lower than the comparable value observed for polymxin B; a MIC value measured that is higher than the comparable value observed for polymyxin B; settings: small panel n = 35; class relative to polymyxin B
Description: as §10, §9

P. aeruginosa = assay: MIC50-90 against small panels (n = 35); type: cell-based; set-up: key: A: a MIC value measurement that is the same as that observed for polymyxin B; a MIC value measured that is lower than the comparable value observed for polymxin B; a MIC value measured that is higher than the comparable value observed for polymyxin B; settings: small panel n = 35; class relative to polymyxin B
Description: as §10, §9

[7] = class relative to polymyxin B, some strains multi-drug resistant

In the case of `CC(C)C[C@H]1NC(=O)[C@H](CCN)NC(=O)[C@@H](NC(=O)[C@@H](CCN)NC(=O)[C@@H](NC(=O)[C@H](CCN)NC(=O)[C@H]2C[C@@H]2c2ccccc2)C(C)O)CCNC(=O)[C@H](C(C)O)NC(=O)[C@H](CCN)NC(=O)[C@H](CCN)NC(=O)[C@H](C(C)O)NC1=O` (single isomer, unassigned) [Compound 5], the “activity against A. baumanni isolates” value (A. baum) was “active”, the “A. baum MIC50” value (A. baum; [7]) was “C” and the “A. baum MIC90” value (A. baum; [7]) was “C”. The “Acute (anaphylactoid) observations” value ([1]; 1 female Sprague-Dawley rat) was “anaphylactoid response was observed”, the “Clinical signs by 0.5 hours” value ([1]; female Sprague-Dawley rat) was “these signs diminished, but the rat remained hypoactive” and the “Clinical signs by 1 hour” value ([1]; female Sprague-Dawley rat) was “no clinical signs and appeared normal”. For the same molecule, the “Clinical signs immediately following the dose” value ([1]; female Sprague-Dawley rat) was “flushed ears, abnormal gait, hypoactivity and squinty eyes”, the “activity against K. pneumonia isolates” value (K. pneu) was “active” and the “K. pneu MIC50” value (K. pneu; [7]) was “C”. The “K. pneu MIC90” value (K. pneu; [7]) was “C”, the “MIC P. aeruginosa #44, 0% surfactant” value (P. aeruginosa #44; 0% surfactant) was “C” and the “MIC P. aeruginosa #44, 10% surfactant” value (P. aeruginosa #44; 10% surfactant (Survanta) in caMHB) was “B”. The “MIC P. aeruginosa #44, 40% surfactant” value (P. aeruginosa #44; 40% surfactant (Survanta) in caMHB) was “B”, the “Lungs cleared within one log10 of limit of detection” value (P. aeruginosa 44 [2]; mouse lung model, 8 through 20 mg/kg dose levels) was “Lungs cleared within one log10 of limit of detection” and the “ED−3log10” value (P. aeruginosa 44 [2]; neutropenic mouse lung, P. aeruginosa 44, SC, BID×1d, cfu 24 hours post-infection, experiment with Formula (Ia)) was 6.35 mg/kg. The “activity against E. coli isolates” value (E. coli [3]) was “active”, the “E. coli MIC50” value (E. coli [3]; [7]) was “C” and the “E. coli MIC90” value (E. coli [3]; [7]) was “A”. The “activity against P. Aeruginosa isolates” value (P. aeru) was “active”, the “P. aeru MIC50” value (P. aeru; [7]) was “A” and the “P. aeru MIC90” value (P. aeru; [7]) was “C”. The “MIC K. pneumoniae 1800 (PMX-resistant)” value [4] was “C”, the “MIC P. aeruginosa 44” value (P. aeruginosa 44 [5]) was “C” and the “MIC A. baumannii 1570” value (A. baumannii 1570) was “C”. The “MIC K. pneumoniae 933” value (K. pneumoniae 933) was “A”, the “E. coli MIC50” value (E. coli [6]) was “C” and the “E. coli MIC90” value (E. coli [6]) was “A”. For the same molecule, the “A. baumannii MIC50” value (A. baumannii) was “C”, the “A. baumannii MIC90” value (A. baumannii) was “C” and the “K. pneumoniae MIC50” value (K. pneumoniae) was “C”. For the same molecule, the “K. pneumoniae MIC90” value (K. pneumoniae) was “C”, the “P. aeruginosa MIC50” value (P. aeruginosa) was “A” and the “P. aeruginosa MIC90” value (P. aeruginosa) was “C”.
